Some test systems named below: SF-539; EKVX; HL-60; A498; MOLT-4; TK-10; NCI-H23; ACHN; SNB-19; A549; RXF 393; SW-620; M14; SNB-75; RPMI-8226; CCRF-CEM; NCI-H522; HCC 2998.
Common to all, as to experiment: NCI-60 cell line screen, 48 h

Molecules are shown by their SMILES.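 Growth conditions: 96-well plates. Treatment: test compound, 48 hours, 5 concentrations. Analysis: linear interpolation between bracketing concentrations; unreached endpoints set to highest concentration. GI50: concentration for 50% inhibition of growth.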 Calls of active or inactive are those of the source. No stated cut-off is given here; in the data, active = GI50 up to about 1.1 µM and inactive = higher.

`Nc1nc(=O)[nH]c2c1cnn2Cc1ccccc1`: the GI50 in the assay with SF-539 was > 100 µM (inactive); with EKVX, > 100 µM (inactive); in the assay on HL-60, > 100 µM (inactive); in the assay with A498, > 100 µM (inactive); in the assay on MOLT-4, > 100 µM (inactive); in the assay on TK-10 it was 1.35 µM (inactive). The GI50 in the assay with NCI-H23 is 1.56 µM (inactive); with ACHN it was > 100 µM (inactive); with SNB-19 it was > 100 µM (inactive); with A549, > 100 µM (inactive); with RXF 393 it was 1.4 µM (inactive); with SW-620 it was > 100 µM (inactive). The GI50 in the assay with M14, in the assay on SNB-75, in the assay on RPMI-8226 and in the assay with CCRF-CEM was > 100 µM (inactive) throughout.
For the molecule `CC(=O)OCC1OC(n2c(-c3ccc(C)cc3)cc(-c3ccccc3)c(C#N)c2=O)C(OC(C)=O)C(OC(C)=O)C1OC(C)=O` (centres undefined), the GI50 is > 100 µM (inactive) with SF-539; > 100 µM (inactive) with EKVX; 48.9 µM (inactive) in the assay with HL-60; > 100 µM (inactive) with MOLT-4; > 100 µM (inactive) with TK-10; 60.7 µM (inactive) in the assay on NCI-H23. In addition, the GI50 with ACHN was > 100 µM (inactive); in the assay on SNB-19 it was > 100 µM (inactive); in the assay with A549, > 100 µM (inactive); with SW-620, > 100 µM (inactive); in the assay with M14, > 100 µM (inactive); in the assay on NCI-H522, 82.6 µM (inactive). In addition, the GI50 in the assay on SNB-75 was 71.6 µM (inactive); with RPMI-8226, 67.1 µM (inactive); in the assay on HCC 2998 it was > 100 µM (inactive); in the assay on CCRF-CEM, > 100 µM (inactive).
Turning to `CN1Nc2ccccc2CC1=O`, the GI50 in the assay with SF-539, in the assay with EKVX, in the assay on A498, in the assay with TK-10, in the assay with NCI-H23 and in the assay with ACHN was > 100 µM (inactive) throughout. The GI50 in the assay with SNB-19, in the assay with A549, with SW-620, in the assay on M14, in the assay on SNB-75 and in the assay with RPMI-8226 was > 100 µM (inactive) each time. For the same molecule, the GI50 in the assay on HCC 2998 and in the assay with CCRF-CEM was > 100 µM (inactive) throughout.
In the case of `Cc1ccc(-c2cc(=O)c3cc(C)c(C)c(C(=O)O)c3o2)cc1C`, the GI50 in the assay on SF-539, in the assay with EKVX, in the assay with HL-60, in the assay on MOLT-4, in the assay with TK-10 and in the assay on NCI-H23 was > 100 µM (inactive) in each case. Also, the GI50 in the assay on ACHN, in the assay on SNB-19, with A549, with RXF 393, with SW-620 and in the assay with M14 was > 100 µM (inactive) throughout. In addition, the GI50 in the assay on NCI-H522, in the assay on SNB-75, with RPMI-8226, with HCC 2998 and in the assay with CCRF-CEM was > 100 µM (inactive) each time.
For the molecule `O=C(N/C(=C\c1ccccc1Cl)c1nc2ccccc2[nH]1)c1ccccc1`, the GI50 was 32.7 µM (inactive) in the assay with SF-539; 21.3 µM (inactive) in the assay on EKVX; 25.7 µM (inactive) in the assay with HL-60; 20.6 µM (inactive) in the assay with MOLT-4; 76.4 µM (inactive) in the assay on TK-10; 25.1 µM (inactive) in the assay on NCI-H23. The GI50 is 30.5 µM (inactive) in the assay on ACHN; 29.3 µM (inactive) in the assay with SNB-19; 26.7 µM (inactive) with A549; 27.4 µM (inactive) in the assay with RXF 393; 27.5 µM (inactive) in the assay with SW-620; 19.8 µM (inactive) with M14. Moreover, the GI50 with NCI-H522 is 22.8 µM (inactive); in the assay on HCC 2998, 29.4 µM (inactive); in the assay on CCRF-CEM it was 30.4 µM (inactive).
With `O=c1cc(/C=C/c2ccccc2)c2ccc(O/C(=C\c3ccccc3)c3nc4ccccc4c(=O)o3)cc2o1`, the GI50 with SF-539 is 23.3 µM (inactive); with EKVX, 23.7 µM (inactive); with HL-60, 12.7 µM (inactive); in the assay with A498, 34.1 µM (inactive); with MOLT-4, 17.6 µM (inactive); with TK-10 it was 51.4 µM (inactive). Moreover, the GI50 in the assay with NCI-H23 is 10.6 µM (inactive); in the assay on ACHN it was 18.5 µM (inactive); in the assay with SNB-19 it was 26 µM (inactive); in the assay on A549 it was 30.4 µM (inactive); in the assay on SW-620 it was 37.5 µM (inactive); in the assay on M14, 18.1 µM (inactive). The GI50 is 4.76 µM (inactive) in the assay with RPMI-8226, 33.3 µM (inactive) in the assay on HCC 2998 and 16.9 µM (inactive) in the assay with CCRF-CEM.
`CC1=C(/C=C/C(C)=C/C=C/C(C)=C/C=C/C=C(C)/C=C/C=C(C)/C=C/C=C(C)/C=C/C=C(\C)C(=O)O)C(C)(C)CCC1`: the GI50 with SF-539, in the assay on EKVX, in the assay with A498, in the assay on MOLT-4, with TK-10 and with NCI-H23 was > 100 µM (inactive) in each case. Also, the GI50 in the assay with ACHN, with SNB-19, in the assay on A549, with RXF 393, in the assay on SW-620 and in the assay with M14 was > 100 µM (inactive) in each case. Also, the GI50 in the assay with NCI-H522 is > 100 µM (inactive); in the assay with SNB-75, 69 µM (inactive); with RPMI-8226, > 100 µM (inactive); in the assay on CCRF-CEM it was > 100 µM (inactive).
Turning to `CCCCN1C(=O)NC(Cc2ccccc2)C1=O` (centres undefined), the GI50 with SF-539, in the assay with EKVX, in the assay on TK-10, with NCI-H23, in the assay with ACHN and in the assay on SNB-19 was > 100 µM (inactive) each time. The GI50 in the assay on A549, with RXF 393, in the assay on SW-620, with M14, in the assay on NCI-H522 and in the assay with SNB-75 was > 100 µM (inactive) in each case. Moreover, the GI50 with HCC 2998 is > 100 µM (inactive).
For `CCN(CC)CCNc1ccc2ncn3c4ccccc4c(=O)c1c23`, the GI50 with SF-539 was 5.86 µM (inactive); with HL-60 it was 5.74 µM (inactive); with A498 it was 6.7 µM (inactive); with MOLT-4 it was 2 µM (inactive); with TK-10 it was 7.41 µM (inactive); in the assay with NCI-H23, 7.06 µM (inactive). In addition, the GI50 was 2.24 µM (inactive) in the assay on ACHN; 9.84 µM (inactive) with SNB-19; 2.85 µM (inactive) with A549; 2.52 µM (inactive) in the assay on SW-620; 4.91 µM (inactive) in the assay on M14; 2.26 µM (inactive) with NCI-H522. Also, the GI50 was 4.59 µM (inactive) with RPMI-8226 and 4.1 µM (inactive) with CCRF-CEM.
For `Cc1cc(O)nc(NN2C(Cl)C(=O)C2c2ccc([N+](=O)[O-])cc2)n1` (centres undefined), the GI50 in the assay on SF-539 was 10.8 µM (inactive); in the assay with EKVX it was 23 µM (inactive); in the assay on HL-60 it was 4.12 µM (inactive); in the assay on MOLT-4 it was 8.13 µM (inactive); in the assay with TK-10, 15.8 µM (inactive); in the assay on NCI-H23 it was 7.18 µM (inactive). Moreover, the GI50 with ACHN is 7.4 µM (inactive); with SNB-19, 15.3 µM (inactive); with A549, 14.7 µM (inactive); with RXF 393 it was 0.76 µM (active); in the assay with SW-620, 20.5 µM (inactive); with M14 it was 11 µM (inactive). Besides, the GI50 was 2.58 µM (inactive) in the assay with SNB-75, 7.35 µM (inactive) in the assay on RPMI-8226, 15.3 µM (inactive) in the assay with HCC 2998 and 2.15 µM (inactive) with CCRF-CEM.
With `COC(=O)CCC(=O)Nc1cc(Cl)ccc1Cl`, the GI50 in the assay on SF-539 is > 100 µM (inactive); in the assay with EKVX, > 100 µM (inactive); in the assay with HL-60, > 100 µM (inactive); with MOLT-4, > 100 µM (inactive); with TK-10, > 10 µM (inactive); with NCI-H23, > 100 µM (inactive). Further, the GI50 in the assay with ACHN was > 100 µM (inactive); in the assay on SNB-19 it was > 100 µM (inactive); in the assay on A549 it was > 100 µM (inactive); in the assay on RXF 393 it was 30.2 µM (inactive); with SW-620, > 100 µM (inactive); in the assay with M14, > 100 µM (inactive). In addition, the GI50 in the assay on NCI-H522, with RPMI-8226, with HCC 2998 and with CCRF-CEM was > 100 µM (inactive) in each case.
Regarding `COc1nc(NC2OCC(OC(C)=O)C(OC(C)=O)C2OC(C)=O)c(/N=C(\C)C(C)=O)c(=O)n1C` (centres undefined), the GI50 in the assay with SF-539, in the assay with EKVX, in the assay with HL-60, with A498, with MOLT-4 and in the assay with TK-10 was > 100 µM (inactive) in each case. The GI50 in the assay with NCI-H23, in the assay on ACHN, with SNB-19, in the assay with A549, in the assay with RXF 393 and in the assay with SW-620 was > 100 µM (inactive) in each case. In addition, the GI50 in the assay on M14, in the assay on SNB-75, with RPMI-8226 and in the assay with CCRF-CEM was > 100 µM (inactive) throughout.
Consider `O=C1c2ccccc2C(=O)C2C1C1C(=O)c3ccccc3C(=O)C21` (centres undefined), for which the GI50 in the assay on SF-539 was > 100 µM (inactive); in the assay with EKVX, > 100 µM (inactive); in the assay on HL-60, 58.9 µM (inactive); in the assay with TK-10 it was > 100 µM (inactive); in the assay on NCI-H23, 99.1 µM (inactive); in the assay with ACHN it was > 100 µM (inactive). Besides, the GI50 in the assay with SNB-19 is > 100 µM (inactive); in the assay on A549, > 100 µM (inactive); with RXF 393, > 100 µM (inactive); in the assay on SW-620, > 100 µM (inactive); in the assay on M14, > 100 µM (inactive); in the assay on NCI-H522, 26.2 µM (inactive). In addition, the figures for the GI50 in the assay with SNB-75, with HCC 2998 and in the assay with CCRF-CEM were 57.4 µM (inactive), 51.6 µM (inactive) and > 100 µM (inactive), respectively.

Values taken from ChEMBL document CHEMBL1201862, “PubChem BioAssay data set” (2004).
